What was measured:
[1] = DLS detection of grain size, PDI and zeta potential of vesicles; format: physicochemical; conditions: for PDI / d(nm) / zeta potential (mV): vesicles of the derivative, depolymerization and assembly repeated three times; for grain size of the vesicles: vesicles assembled once, pH below 7.2, FIG. 5
Protocol: • ① In this test example, the grain sizes of vesicle compounds formed by three compounds, LA-PEG2-BPA, LA-PEG4-BPA, and LA-PEG4-3-BPA, were detected.
Preparation of the vesicle nanoparticles to be detected for grain size in this test example includes: An appropriate amount of the corresponding compound was weighed and placed into a sample vial, double-distilled water was added, an appropriate amount of NaOH aqueous solution was added to adjust the pH to between 10 and 11 until the starting material was completely dissolved, followed by addition of an appropriate amount of hydrochloric acid to adjust the pH to below 7.2, thereby completing vesicle assembly.
② The lipoic acid derivatives were separately assembled into vesicles, including LA-PEG1-BPA (denoted as L^pB-1), LA-PEG2-BPA (denoted as L^pB-2), LA-PEG4-BPA (denoted as L^pB-3), LA-PEG8-BPA (denoted as L^pB-4), LA-PEG1-3-BPA (denoted as L^mB-1), LA-PEG2-3-BPA (denoted as L^mB-2), LA-PEG4-3-BPA (denoted as L^mB-3), and LA-PEG8-3-BPA (denoted as L^mB-4); the vesicle assembly method in this test example was based on the preparation method of the vesicle examples and depolymerization and assembly were repeatedly three times; the physicochemical properties of the self-assembled vesicles were detected, and the grain size, polymer dispersancy index (PDI), and zeta potential of the vesicles were detected using DLS (dynamic light scattering) technology. Table 1 […]

[2] = Critical aggregation concentration by Nile Red fluorescence; format: physicochemical; conditions: Nile Red 1.0 µM, distilled water
Protocol: A mixture of Nile Red (at a concentration of 1.0 µM) and the corresponding BPA lipoic acid derivative (at a concentration of 0-20 mM) in distilled water was oscillated overnight under constant temperature conditions. The fluorescence emission intensity of Nile Red at 525 nm wavelength (λex = 485 nm) was measured using a FluoroMax-4 fluorometer. The critical aggregation concentration of the BPA lipoic acid derivative in aqueous medium was calculated from the intersection point of two linear regression equations.
The critical aggregation concentration (CAC) refers to the minimum concentration at which a substance forms aggregates in an aqueous solution. When the concentration of a surfactant or colloidal particle in an aqueous solution exceeds the critical aggregation concentration, they begin to self-assemble into aggregates due to intermolecular attractive forces. This process is referred to as aggregation or self-assembly.

Structure (SMILES)	PDI [1]	d(nm) [1] [nm]	zeta potential (mV) [1] [mV]	CAC [2] [µM]	grain size of the vesicles [1]
O=C(CCCCC1CCSS1)NCCOCCOCCC(=O)NC(Cc1cccc(B(O)O)c1)C(=O)O (stereo not drawn) [L^mB-2]	0.102	149.1	-28.61	254	–
O=C(CCCCC1CCSS1)NCCOCCOCCC(=O)NC(Cc1ccc(B(O)O)cc1)C(=O)O (stereo not drawn) [L^pB-2]	0.015	144.7	-30.9	248	approximately 244 nm
O=C(CCCCC1CCSS1)NCCOCCOCCOCCOCCOCCOCCOCCOCCC(=O)NC(Cc1ccc(B(O)O)cc1)C(=O)O (stereo not drawn) [L^pB-4]	0.217	268.4	-29.35	277	–
O=C(CCCCC1CCSS1)NCCOCCOCCOCCOCCC(=O)NC(Cc1cccc(B(O)O)c1)C(=O)O (stereo not drawn) [L^mB-3]	0.209	165.7	-35.20	274	approximately 114 nm
O=C(CCCCC1CCSS1)NCCOCCC(=O)NC(Cc1ccc(B(O)O)cc1)C(=O)O (stereo not drawn) [L^pB-1]	0.107	98.9	-32.5	243	–
O=C(CCCCC1CCSS1)NCCOCCOCCOCCOCCOCCOCCOCCOCCC(=O)NC(Cc1cccc(B(O)O)c1)C(=O)O (stereo not drawn) [L^mB-4]	0.237	284.6	-35.2	280	–
O=C(CCCCC1CCSS1)NCCOCCC(=O)NC(Cc1cccc(B(O)O)c1)C(=O)O (stereo not drawn) [L^mB-1]	0.132	105.3	-30.7	256	–
